Experimental data as given in ChEMBL document CHEMBL1201862, “PubChem BioAssay data set” (2004).
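Method: 48-hour compound exposure of cells in 96-well plates, five concentrations, linear interpolation of endpoints. The concentration for 50% growth inhibition is given as GI50.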 Activity calls are given as the source filed them. Rule as the data show it: active = GI50 up to about 1.1 µM and inactive = higher.

Columns and labels:
Assay in all cases: DTP human tumour cell line panel, 48 h
786-0 = tested on: 786-0
A549 = tested on: A549
DLD-1 = tested on: DLD-1
HOP-92 = tested on: HOP-92
M14 = tested on: M14
NCI-H460 = tested on: NCI-H460
OVCAR-3 = tested on: OVCAR-3
OVCAR-4 = tested on: OVCAR-4
OVCAR-5 = tested on: OVCAR-5
RPMI-8226 = tested on: RPMI-8226
SK-MEL-28 = tested on: SK-MEL-28
SK-OV-3 = tested on: SK-OV-3
SNB-19 = tested on: SNB-19
UACC-62 = tested on: UACC-62
DU-145 = tested on: DU-145
Hs-578T = tested on: Hs-578T
MDA-MB-435 = tested on: MDA-MB-435
MDA-N = tested on: MDA-N
SR = tested on: SR
T47D = tested on: T47D

| Structure (SMILES) | GI50 (786-0) | GI50 (A549) | GI50 (DLD-1) | GI50 (HOP-92) | GI50 (M14) | GI50 (NCI-H460) | GI50 (OVCAR-3) | GI50 (OVCAR-4) | GI50 (OVCAR-5) | GI50 (RPMI-8226) | GI50 (SK-MEL-28) | GI50 (SK-OV-3) | GI50 (SNB-19) | GI50 (UACC-62) | GI50 (DU-145) | GI50 (Hs-578T) | GI50 (MDA-MB-435) | GI50 (MDA-N) | GI50 (SR) | GI50 (T47D) |
| --- | --- | --- | --- | --- | --- | --- | --- | --- | --- | --- | --- | --- | --- | --- | --- | --- | --- | --- | --- | --- |
| O=C(CN1CCOCC1)Nc1nc(-c2ccc(Cl)cc2)cs1 | 60.3 µM (inactive) | 24.4 µM (inactive) | 33.1 µM (inactive) | 53.7 µM (inactive) | 32.2 µM (inactive) | 28.3 µM (inactive) | 22.3 µM (inactive) | 25.7 µM (inactive) | 89.7 µM (inactive) | 13.6 µM (inactive) | 25.6 µM (inactive) | 65.3 µM (inactive) | 39.1 µM (inactive) | 20 µM (inactive) |  |  |  |  |  |  |
| CC(C)(C)C(=O)Nc1cccc(-c2ccc[nH]2)n1 | > 100 µM (inactive) | > 100 µM (inactive) |  | > 100 µM (inactive) | > 100 µM (inactive) | > 96.8 µM (inactive) | > 83.8 µM (inactive) | > 55.6 µM (inactive) | > 100 µM (inactive) | < 0.01 µM (active) | > 100 µM (inactive) | > 100 µM (inactive) | > 100 µM (inactive) | 86.9 µM (inactive) | > 100 µM (inactive) | 22.7 µM (inactive) | > 44.9 µM (inactive) | > 100 µM (inactive) | 67.1 µM (inactive) | > 57.5 µM (inactive) |
| CSCCOC(=O)C(=[N+]=[N-])c1ccc([N+](=O)[O-])cc1 | > 100 µM (inactive) | > 100 µM (inactive) | > 100 µM (inactive) |  | > 100 µM (inactive) | > 100 µM (inactive) | > 100 µM (inactive) | > 100 µM (inactive) | > 100 µM (inactive) | > 100 µM (inactive) | > 100 µM (inactive) | > 100 µM (inactive) | > 100 µM (inactive) |  |  |  |  |  | > 100 µM (inactive) |  |
| O=C(O)C12C3C4C1C1C2C3C1(Br)C41OCCO1 (stereo not given) | > 100 µM (inactive) | > 100 µM (inactive) | > 100 µM (inactive) | > 100 µM (inactive) |  | > 100 µM (inactive) | > 100 µM (inactive) |  | > 100 µM (inactive) | > 100 µM (inactive) | > 100 µM (inactive) | > 100 µM (inactive) | > 100 µM (inactive) |  |  |  |  |  |  |  |
| c1ccc(C[n+]2cccc(-c3cc4ccccc4[nH]3)c2)cc1 | 50.1 µM (inactive) | 91.2 µM (inactive) |  | 16.4 µM (inactive) | 21.7 µM (inactive) | 25.3 µM (inactive) | 31 µM (inactive) | 40.2 µM (inactive) | 42.7 µM (inactive) | 17.6 µM (inactive) | 16.4 µM (inactive) | > 100 µM (inactive) | 26.5 µM (inactive) | 15.7 µM (inactive) | 47.4 µM (inactive) | 20.2 µM (inactive) | 18.5 µM (inactive) | 19.1 µM (inactive) | 32.1 µM (inactive) | 23.6 µM (inactive) |
| Nc1ccc(C(=O)NN2C(=O)C(Cl)C2c2cc(Br)ccc2O)cc1 (stereo not given) | 78.9 µM (inactive) | > 100 µM (inactive) | > 100 µM (inactive) | > 100 µM (inactive) | > 100 µM (inactive) | > 100 µM (inactive) | > 100 µM (inactive) | > 100 µM (inactive) | > 100 µM (inactive) | > 100 µM (inactive) | > 100 µM (inactive) | > 100 µM (inactive) | > 100 µM (inactive) | > 100 µM (inactive) |  |  |  |  |  |  |
| CCCc1nc(N)nc(C(=O)Nc2cccc(C(F)(F)F)c2)c1CC | > 100 µM (inactive) | > 100 µM (inactive) | > 100 µM (inactive) | > 100 µM (inactive) | > 100 µM (inactive) | > 100 µM (inactive) | > 100 µM (inactive) | > 100 µM (inactive) | > 100 µM (inactive) | 76.6 µM (inactive) | > 100 µM (inactive) |  | > 100 µM (inactive) | > 100 µM (inactive) |  |  |  |  |  |  |
| COC(CC1(/C=C/O[Si](C(C)C)(C(C)C)C(C)C)C(=O)N(C)c2ccccc21)OC (stereo not given) | 18.4 µM (inactive) | 45.2 µM (inactive) |  | > 100 µM (inactive) | 94.8 µM (inactive) | 45.9 µM (inactive) | > 100 µM (inactive) | 34.5 µM (inactive) | > 100 µM (inactive) | 15.3 µM (inactive) | > 100 µM (inactive) | 35.7 µM (inactive) | > 100 µM (inactive) | > 100 µM (inactive) | > 100 µM (inactive) | 15.9 µM (inactive) | 76.2 µM (inactive) | > 100 µM (inactive) | 31.6 µM (inactive) | 55.3 µM (inactive) |
| C[N+]1(CCC(=O)c2ccccc2)CCC2CCC(C2)C1 (stereo not given) | > 100 µM (inactive) | > 100 µM (inactive) |  | > 100 µM (inactive) | > 100 µM (inactive) | > 100 µM (inactive) | > 100 µM (inactive) | > 100 µM (inactive) | > 100 µM (inactive) | > 100 µM (inactive) | > 100 µM (inactive) | > 100 µM (inactive) | > 100 µM (inactive) | > 100 µM (inactive) | > 100 µM (inactive) | > 100 µM (inactive) | > 100 µM (inactive) | > 100 µM (inactive) | > 100 µM (inactive) | > 100 µM (inactive) |
| COc1ccc2nc(NC(=O)C(=O)C(C#N)c3ccc([N+](=O)[O-])cc3)sc2c1 (stereo not given) | > 100 µM (inactive) | > 100 µM (inactive) | > 100 µM (inactive) | > 100 µM (inactive) | > 100 µM (inactive) | > 100 µM (inactive) | > 100 µM (inactive) | > 100 µM (inactive) | > 100 µM (inactive) | 31.2 µM (inactive) | > 100 µM (inactive) | > 100 µM (inactive) | > 100 µM (inactive) | 46 µM (inactive) |  |  |  |  |  |  |
| CCOC(=O)/C=C(/OCC)[C@@H]1C(C(=O)c2ccc(Cl)cc2)[C@@H]1/C(=C\C(=O)OCC)OCC (stereo not given in full) | > 33.7 µM (inactive) | 10.9 µM (inactive) |  | 2.47 µM (inactive) | 14.5 µM (inactive) | 18.6 µM (inactive) | 7.57 µM (inactive) | 67.3 µM (inactive) | 30.6 µM (inactive) | 2.79 µM (inactive) | 41.7 µM (inactive) | 27.2 µM (inactive) | 11.9 µM (inactive) | 28.8 µM (inactive) | 47.1 µM (inactive) | 12.9 µM (inactive) | 6.58 µM (inactive) | 17.5 µM (inactive) | 17.7 µM (inactive) | 6.01 µM (inactive) |
| CCCCCCCCCCCOc1ccc(C(=O)C(=O)c2ccc(OCCCCCCCCCCC)c(OCCCCCCCCCCC)c2)cc1OCCCCCCCCCCC | > 100 µM (inactive) | > 100 µM (inactive) | > 100 µM (inactive) |  | > 100 µM (inactive) | > 100 µM (inactive) | > 100 µM (inactive) | > 100 µM (inactive) | > 100 µM (inactive) | > 100 µM (inactive) | > 100 µM (inactive) | > 100 µM (inactive) | > 100 µM (inactive) | > 100 µM (inactive) |  |  |  |  |  |  |
| COc1ccccc1CCN1CCN(CCCc2ccccc2)CC1 | 45.6 µM (inactive) | 85.7 µM (inactive) |  | 0.524 µM (active) | 24.2 µM (inactive) | 54.3 µM (inactive) | > 100 µM (inactive) | 89.7 µM (inactive) | > 100 µM (inactive) | 39.4 µM (inactive) | > 100 µM (inactive) | > 100 µM (inactive) | > 100 µM (inactive) | > 100 µM (inactive) | > 100 µM (inactive) | > 100 µM (inactive) | 85.5 µM (inactive) | 58.9 µM (inactive) | 32.7 µM (inactive) | 55.3 µM (inactive) |
| CC(=O)c1ccccc1NC(=O)C(=O)C(C(=O)c1ccc2ccccc2c1)C1OC(=O)c2ccccc21 (stereo not given) | 6.61 µM (inactive) | 19.3 µM (inactive) | 12.2 µM (inactive) | 12.4 µM (inactive) | 16.4 µM (inactive) | 5.43 µM (inactive) | 9.82 µM (inactive) | 17.2 µM (inactive) | 22.2 µM (inactive) | 6.11 µM (inactive) | 11.3 µM (inactive) | 29.2 µM (inactive) | 4.73 µM (inactive) | 13 µM (inactive) |  |  |  |  |  |  |
| CCc1nc(N)nc(C(=O)NCCNC(=O)c2nc(N)nc(CC)c2C)c1C | > 100 µM (inactive) | > 100 µM (inactive) | > 100 µM (inactive) | > 100 µM (inactive) | > 100 µM (inactive) | > 100 µM (inactive) | > 100 µM (inactive) | > 100 µM (inactive) | > 100 µM (inactive) | > 100 µM (inactive) | > 100 µM (inactive) |  | > 100 µM (inactive) | > 100 µM (inactive) |  |  |  |  |  |  |
| O=C(O)COc1cc(-c2ccccc2)nc2ccccc12 | 81.8 µM (inactive) | 66.4 µM (inactive) |  | > 100 µM (inactive) | 71 µM (inactive) | 48 µM (inactive) | > 100 µM (inactive) | 77.1 µM (inactive) | > 100 µM (inactive) | 86.7 µM (inactive) | 73.3 µM (inactive) | 73.3 µM (inactive) | 98.4 µM (inactive) | > 10 µM (inactive) | > 100 µM (inactive) | 62.4 µM (inactive) | 16 µM (inactive) | 26.1 µM (inactive) | 63 µM (inactive) | > 100 µM (inactive) |
| Cc1c2cc[n+](C)cc2c(C)c2c1[nH]c1ccc(Oc3ccccc3)cc12 | 0.518 µM (active) | 0.272 µM (active) | 1.3 µM (inactive) | 0.935 µM (active) | 4.37 µM (inactive) |  | 1.14 µM (inactive) | 2.56 µM (inactive) | 2.51 µM (inactive) | 2.64 µM (inactive) | 2.89 µM (inactive) | 1.14 µM (inactive) | 0.506 µM (active) | 1.43 µM (inactive) |  |  |  |  |  |  |
